Results reported in ChEMBL document CHEMBL1138012, “Parallel synthesis of acylsemicarbazide libraries: preparation of potent cyclin dependent kinase (cdk) inhibitors” (Bioorg Med Chem Lett, 2004).

Columns and labels:
[1] = target: Cyclin-dependent kinase 2/cyclin E (Homo sapiens, UniProt P24941); experiment: Inhibitory concentration against Cyclin dependant kinase 2-cyclinE; type: protein-complex assay
[2] = target: Cyclin-dependent kinase 4/cyclin D1 (Homo sapiens, UniProt P11802); experiment: Inhibitory concentration against Cyclin dependant kinase 4-cyclinD1; type: protein-complex assay
Cyclin-dependent kinase 4/cyclin D1, sequence (P11802 whole entry): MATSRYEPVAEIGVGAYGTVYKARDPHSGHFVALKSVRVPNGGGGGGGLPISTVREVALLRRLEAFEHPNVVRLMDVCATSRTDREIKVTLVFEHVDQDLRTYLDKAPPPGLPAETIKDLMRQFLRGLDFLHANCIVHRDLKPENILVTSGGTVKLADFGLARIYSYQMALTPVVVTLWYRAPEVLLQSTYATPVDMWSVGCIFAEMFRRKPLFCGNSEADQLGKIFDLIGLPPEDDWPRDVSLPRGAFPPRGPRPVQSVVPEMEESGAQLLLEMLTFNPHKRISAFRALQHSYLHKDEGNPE
Cyclin-dependent kinase 4/cyclin D1, sequence (P24385 whole entry, further chain): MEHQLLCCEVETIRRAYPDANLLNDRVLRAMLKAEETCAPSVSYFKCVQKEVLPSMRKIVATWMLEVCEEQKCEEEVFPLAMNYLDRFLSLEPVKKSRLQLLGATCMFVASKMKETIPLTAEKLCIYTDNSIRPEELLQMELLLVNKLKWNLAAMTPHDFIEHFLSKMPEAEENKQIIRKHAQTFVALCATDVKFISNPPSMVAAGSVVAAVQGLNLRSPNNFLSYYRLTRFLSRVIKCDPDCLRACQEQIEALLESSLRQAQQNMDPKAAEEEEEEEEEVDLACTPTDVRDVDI

HCT-116 = experiment: Inhibitory concentration against human colon cancer HCT116 cell line; type: functional, cell-based

| IC50 [1] [nM] | IC50 [2] [nM] | IC50 (HCT-116) [nM] | Compound |
| --- | --- | --- | --- |
| 20 | 10 |  | COc1ccc(-c2[nH]nc3c2C(=O)c2c(NC(=O)NNC(=O)c4cccc([N+](=O)[O-])c4)cccc2-3)cc1 |
| 10 |  | 280 | COc1ccc(-c2[nH]nc3c2C(=O)c2c(NC(=O)NNC(=O)Nc4ccccc4)cccc2-3)cc1 |
| 30 | 10 |  | COc1ccc(-c2[nH]nc3c2C(=O)c2c(NC(=O)NNC(=O)c4cc(N)cc(N)c4)cccc2-3)cc1 |
| 9 | 60 | 80 | COc1ccc(-c2[nH]nc3c2C(=O)c2c(NC(=O)NNC(=O)c4ccccc4O)cccc2-3)cc1 |
| 10 | 6.5 |  | COc1ccc(-c2[nH]nc3c2C(=O)c2c(NC(=O)NNC(=O)C(C)C)cccc2-3)cc1 |
| 10 | 10 | 250 | COc1ccc(-c2[nH]nc3c2C(=O)c2c(NC(=O)NNC(=O)c4ccc(O)cc4O)cccc2-3)cc1 |
| 30 | 10 | 120 | COc1ccc(-c2[nH]nc3c2C(=O)c2c(NC(=O)NNC(=O)c4ccc5ccccc5c4)cccc2-3)cc1 |
| 10 |  | 40 | COc1ccc(-c2[nH]nc3c2C(=O)c2c(NC(=O)NNC(=O)c4ccccc4OC)cccc2-3)cc1 |
| 10 | 7 |  | COc1ccc(-c2[nH]nc3c2C(=O)c2c(NC(=O)NNC(=O)c4cccc(C)c4)cccc2-3)cc1 |
| 10 | 10 |  | COc1ccc(C(=O)NNC(=O)Nc2cccc3c2C(=O)c2c(-c4ccc(OC)cc4)n[nH]c2-3)cc1 |
| 20 |  | 140 | COc1ccc(-c2[nH]nc3c2C(=O)c2c(NC(=O)NNC(=O)c4ccc(C)cc4)cccc2-3)cc1 |
| 130 |  |  | COc1ccc(-c2[nH]nc3c2C(=O)c2c(NC(=O)NNC(N)=O)cccc2-3)cc1 |
| 30 | 20 |  | COc1ccc(-c2[nH]nc3c2C(=O)c2c(NC(=O)NNC(=O)Cc4ccccc4)cccc2-3)cc1 |
| 10 | 10 | 70 | COc1ccc(-c2[nH]nc3c2C(=O)c2c(NC(=O)NNC(=O)c4ccc(N)cc4)cccc2-3)cc1 |
| 10 | 9 | 190 | COc1ccc(-c2[nH]nc3c2C(=O)c2c(NC(=O)NNC(=O)c4ccncc4)cccc2-3)cc1 |
| 240 | 400 |  | COc1ccc(-c2[nH]nc3c2C(=O)c2c(NC=O)cccc2-3)cc1 |
| 10 | 7 | 80 | COc1ccc(-c2[nH]nc3c2C(=O)c2c(NC(=O)NNC(=O)c4cccc(N)c4)cccc2-3)cc1 |
| 30 | 50 |  | COc1ccc(-c2[nH]nc3c2C(=O)c2c(NC(=O)NNC(C)=O)cccc2-3)cc1 |
| 30 | 20 |  | COc1ccc(-c2[nH]nc3c2C(=O)c2c(NC(=O)NNC(=O)c4cc(Cl)ccc4Cl)cccc2-3)cc1 |
| 10 | 8 | 50 | COC(=O)NNC(=O)Nc1cccc2c1C(=O)c1c-2n[nH]c1-c1ccc(OC)cc1 |
|  | 5 | 1100 | COc1ccc(-c2[nH]nc3c2C(=O)c2c(NC(=O)NNC(=O)c4ccc(O)cc4)cccc2-3)cc1 |
| 10 | 7 | 30 | COc1ccc(-c2[nH]nc3c2C(=O)c2c(NC(=O)NNC(=O)c4ccccc4)cccc2-3)cc1 |
| 10 | 9 | 190 | COc1ccc(-c2[nH]nc3c2C(=O)c2c(NC(=O)NNC(=O)c4cccnc4)cccc2-3)cc1 |
| 50 |  |  | COc1ccc(-c2[nH]nc3c2C(=O)c2c(NC(=O)NNC(=O)c4cccc5ccccc45)cccc2-3)cc1 |
| 90 | 240 | 1200 | COc1ccc(-c2[nH]nc3c2C(=O)c2c(NC(=O)NNC(=O)C(N)=O)cccc2-3)cc1 |
| 40 | 20 |  | COc1ccc(-c2[nH]nc3c2C(=O)c2c(NC(=O)NNC(=O)c4cc(OC)cc(OC)c4)cccc2-3)cc1 |
| 10 | 9 |  | COc1ccc(-c2[nH]nc3c2C(=O)c2c(NC(=O)NNC(=O)CCc4ccc(O)cc4)cccc2-3)cc1 |
| 20 | 7 |  | COc1ccc(-c2[nH]nc3c2C(=O)c2c(NC(=O)NNC(=O)c4ccc(O)c(N)c4)cccc2-3)cc1 |
| 10 | 5 |  | COc1ccc(-c2[nH]nc3c2C(=O)c2c(NC(=O)NNC(=O)c4ccc(O)c(O)c4)cccc2-3)cc1 |
| 20 | 7 |  | COc1ccc(-c2[nH]nc3c2C(=O)c2c(NC(=O)NNC(=O)c4cc(OC)c(OC)c(OC)c4)cccc2-3)cc1 |
